Source: patent US10017509B2, “Macrocylic pyrimidine derivatives” (Janssen Pharmaceutica NV, priority 2014, dated 2018)

How the values were obtained:
[1] = target: Vps34 (PIK3C3 lipid kinase) (Homo sapiens, UniProt Q8NEB9); assay: Biochemical Vps34 lipid kinase assay (ADP-Glo); conditions: for remaining activity at 1 µM: 1 h, read-out: VPS34_1microM_% of cntrl; for remaining activity at 1 µM / VPS34_1microM_% of cntrl: single dose 1 μM compound, residual activity compared to control (DMSO); for IC50: serial half-log dilution 10 μM to 0.3 nM, pIC50 = -log IC50 (M)
Vps34 (PIK3C3 lipid kinase), sequence (Q8NEB9 whole entry, species assumed): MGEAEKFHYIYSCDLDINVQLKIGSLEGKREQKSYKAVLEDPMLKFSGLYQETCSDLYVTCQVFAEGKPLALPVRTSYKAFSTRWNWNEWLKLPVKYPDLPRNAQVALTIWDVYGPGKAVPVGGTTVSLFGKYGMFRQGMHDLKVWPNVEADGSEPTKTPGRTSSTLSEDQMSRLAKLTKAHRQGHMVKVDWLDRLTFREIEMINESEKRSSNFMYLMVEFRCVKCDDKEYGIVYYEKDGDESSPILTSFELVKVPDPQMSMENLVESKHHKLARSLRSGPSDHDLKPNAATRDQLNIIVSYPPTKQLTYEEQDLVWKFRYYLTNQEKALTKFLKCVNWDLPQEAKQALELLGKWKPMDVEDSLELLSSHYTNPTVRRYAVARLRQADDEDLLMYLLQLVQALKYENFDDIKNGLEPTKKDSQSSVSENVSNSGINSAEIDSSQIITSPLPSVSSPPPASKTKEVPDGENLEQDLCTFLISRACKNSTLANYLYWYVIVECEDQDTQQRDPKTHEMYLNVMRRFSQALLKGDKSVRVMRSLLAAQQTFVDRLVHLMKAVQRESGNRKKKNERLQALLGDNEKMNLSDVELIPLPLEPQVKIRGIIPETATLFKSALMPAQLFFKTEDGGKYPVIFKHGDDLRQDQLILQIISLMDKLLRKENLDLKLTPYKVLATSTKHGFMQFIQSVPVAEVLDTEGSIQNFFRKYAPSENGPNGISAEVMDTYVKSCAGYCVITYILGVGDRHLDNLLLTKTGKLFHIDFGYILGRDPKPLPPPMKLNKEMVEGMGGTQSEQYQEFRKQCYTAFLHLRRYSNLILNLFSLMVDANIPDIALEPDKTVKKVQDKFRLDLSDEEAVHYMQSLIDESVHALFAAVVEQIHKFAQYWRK
How it was run: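 ADP-Glo luminescence assay of PIK3C3 (7.6 nM) with 50 µM substrate and 20 µM ATP (apparent Km) in HEPES pH 7.5, 100 mM NaCl, 3 mM MnCl2, CHAPS, DTT; 60 min, 30 °C. Single dose 1 µM (residual activity vs DMSO) or half-log series 10 µM-0.3 nM giving pIC50.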

EF2K [2] = target: T1, EF2K (Homo sapiens, UniProt O00418); assay: EF2K cell-based assay (P-EF2 AlphaLISA, 2-deoxyglucose stimulated MCF10A cells); conditions: 2.5 mM 2-deoxyglucose stimulated, P-EF2 Thr56, pIC50 = -log IC50 (M); for IC50: read-out: eEF2K_C_PThr56 pIC50 (converted)
T1 construct: host or cells: LN-229 cell lysate
T1 sequence (O00418 1-725): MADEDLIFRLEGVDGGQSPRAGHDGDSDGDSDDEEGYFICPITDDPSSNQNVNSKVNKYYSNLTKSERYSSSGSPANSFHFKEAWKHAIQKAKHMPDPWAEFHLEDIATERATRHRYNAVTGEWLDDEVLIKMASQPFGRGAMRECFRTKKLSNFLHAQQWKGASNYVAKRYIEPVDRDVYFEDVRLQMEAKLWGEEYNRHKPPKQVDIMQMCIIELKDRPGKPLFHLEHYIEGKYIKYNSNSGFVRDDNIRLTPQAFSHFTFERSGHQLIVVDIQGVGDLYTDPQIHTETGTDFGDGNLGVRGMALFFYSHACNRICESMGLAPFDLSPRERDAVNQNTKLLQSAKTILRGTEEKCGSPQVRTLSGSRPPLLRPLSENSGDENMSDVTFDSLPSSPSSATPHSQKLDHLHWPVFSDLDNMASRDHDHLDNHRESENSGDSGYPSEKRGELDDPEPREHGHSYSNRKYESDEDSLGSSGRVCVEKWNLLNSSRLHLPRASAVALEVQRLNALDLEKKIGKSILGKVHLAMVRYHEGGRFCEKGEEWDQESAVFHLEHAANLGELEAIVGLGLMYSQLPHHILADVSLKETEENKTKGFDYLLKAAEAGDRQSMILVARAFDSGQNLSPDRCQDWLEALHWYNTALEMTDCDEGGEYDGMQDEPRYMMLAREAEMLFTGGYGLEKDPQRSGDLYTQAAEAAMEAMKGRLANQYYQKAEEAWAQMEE
How it was run: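 MCF10A cells, after 24 h culture, treated 1 h with compound then stimulated 4 h with 2.5 mM 2-deoxyglucose to activate AMPK. Lysates in M-PER with protease/phosphatase inhibitors assayed for P-EF2 by AlphaLISA; pIC50 = −log IC50 (M).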

EF2K [3] = target: T1, EF2K; assay: Biochemical EF2K lysate-based kinase assay (AlphaLISA p-eEF2 Thr56); conditions: pIC50 = -log IC50 (M), read-out: eEF2K_C_alphalisa pIC50 (converted)
How it was run: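 LN-229 glioblastoma lysate supplied both EF2K and eEF2 substrate; compound incubated 15 min at room temperature in pH 6.6 buffer with 10 mM Mg2+ and 10 mM ATP. EDTA-stopped; phospho-eEF2 Thr56 quantified by AlphaLISA sandwich, final read after overnight. Values as pIC50.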

Compound | remaining activity at 1 µM [1] [%] | IC50 [1] [M] | IC50 (EF2K [2]) [M] | IC50 (EF2K [3]) [M] | VPS34_1microM_% of cntrl [1] | eEF2K_C_PThr56 pIC50 (EF2K [2])
CN1CCN(C)c2ccc(cn2)-c2ccnc(n2)Nc2cccc(c2)CN2CCN(C)C(CC1=O)C2 (stereo not drawn) [Compound 73] | 19.6 | 4.07e-07 | > 3.02e-05 | 1.82e-06 | – | –
O=C1CN2CCN(CC2)Cc2cc(ccc2C(=O)O)Nc2nccc(n2)-c2ccc(nc2)NCCCN1 [Compound 16] | 15.9 | 3.63e-07 | > 3.02e-05 | 2.04e-06 | – | –
O=C1CN2CCN(CC2=O)Cc2cccc(c2)Nc2nccc(n2)-c2ccc(nc2)NCCCN1 [Compound 77] | 6.27 | 1.29e-07 | > 3.02e-05 | 2.09e-06 | – | –
CN1CCCNC(=O)CC2CCN(CC2)Cc2cccc(c2)Nc2nccc(n2)-c2ccc1nc2 [Compound 125] | 28.4 | 3.39e-07 | > 3.02e-05 | 1.58e-05 | – | –
Cc1cc2cc(c1)Nc1nccc(n1)-c1ccc(nc1)NCCCNC(=O)CN1CCN(CC1)C2 [Compound 7] | 15.1 | 1.58e-07 | > 3.02e-05 | 1.38e-05 | – | –
CNC(=O)c1ccc2cc1CN1CCN(CC1)CC(=O)NCCCNc1ccc(cn1)-c1ccnc(n1)N2 [Compound 13] | 9 | 8.71e-08 | 6.76e-06 | 3.98e-07 | – | –
O=C1CN2CCC(CC2)Cc2cccc(c2)Nc2nccc(n2)-c2ccc(nc2)NCCCN1 [Compound 115] | 6.01 | 1.51e-07 | > 3.02e-05 | 2.14e-07 | – | –
O=C1CN2CCN(Cc3cccc(c3)Nc3nccc(n3)-c3ccc(nc3)NCCCN1)C(C(F)(F)F)C2 (stereo not drawn) [Compound 50] | 12.4 | 3.98e-07 | 4.9e-06 | 1.12e-07 | – | –
O=C1CN2CCN(CC2)Cc2cc(ccc2Cl)Nc2nccc(n2)-c2ccc(nc2)NCCCN1 [Compound 120] | 7.29 | 1.2e-07 | 1.45e-05 | 1.74e-07 | – | –
COCC1CN2CCN1Cc1cccc(c1)Nc1nccc(n1)-c1ccc(nc1)N(C)CCCN(C)C(=O)C2 (stereo not drawn) [Compound 97] | 24.6 | 5.37e-07 | 2.24e-05 | 1.51e-07 | – | –
CN1CCCN(C)c2ccc(cn2)-c2ccnc(n2)Nc2cccc(c2)CC2(O)CCN(CC2)CC1=O [Compound 114] | 30.8 | – | 2.34e-05 | 4.47e-06 | – | –
O=C1CN2CCN(CC2)Cc2cccc(c2)Nc2nccc(n2)-c2ccc(nc2)N2CCCC2CN1 (stereo not drawn) [Compound 26] | – | 1.02e-07 | > 3.02e-05 | 1.48e-05 | 5.23 % of cntrl | –
CN1CCCN(C)c2ccc(cn2)-c2ccnc(n2)Nc2cccc(c2)CN2CCN(CC1=O)C(CCO)C2 (stereo not drawn) [Compound 63] | 16.4 | 3.24e-07 | > 3.02e-05 | 2.4e-07 | – | –
CN1CCCN(C)c2ccc(cn2)-c2ccnc(n2)Nc2ccc(C(N)=O)c(c2)CN2CCN(CC2)CC1=O [Compound 10] | 10.8 | 2.88e-07 | 1.29e-05 | 3.63e-07 | – | –
CN1CCCN(C)c2ccc(cn2)-c2ccnc(n2)Nc2cccc(c2)CN2CCN(CC2)CC1=O [Compound 1] | – | 1.55e-06 | 2.95e-06 | 7.59e-08 | – | –
CN1CCCN(C)c2ccc(cn2)-c2ccnc(n2)Nc2cccc(c2)CN2CCN(CC1=O)CC2CO (single isomer, unassigned) [Compound 53] | – | 2.75e-07 | – | 3.39e-08 | 13.15 % of cntrl | <4.52
CN1CCCN(C)c2ccc(cn2)-c2ccnc(n2)Nc2cccc(c2)S(=O)(=O)N2CCN(CC2)CC1=O [Compound 27] | 50.7 | – | > 3.02e-05 | 2.95e-06 | – | –

Compound | remaining activity at 1 µM [1] [%] | IC50 [1] [M] | IC50 (EF2K [2]) [M] | IC50 (EF2K [3]) [M] | VPS34_1microM_% of cntrl [1] | eEF2K_C_PThr56 pIC50 (EF2K [2])
C#CCN1CCNC(=O)CN2CCN(CC2)Cc2cccc(c2)Nc2nccc(n2)-c2ccc(nc2)C1 [Compound 36] | 16 | 3.39e-07 | 1.32e-06 | 4.37e-08 | – | –
O=C1CN2CCN(CC2)Cc2cc(ccc2F)Nc2nccc(n2)-c2ccc(nc2)NCCCN1 [Compound 2] | 4.44 | 1e-07 | 5.75e-06 | 6.31e-08 | – | –
O=C1CN2CCN(CC2)Cc2cccc(c2)Nc2nccc(n2)-c2ccc(nc2)CN(CC2CC2)CCN1 [Compound 35] | – | 7.76e-08 | 1.32e-07 | 9.33e-09 | – | –
CN1CCCN(C)c2ccc(cn2)-c2ccnc(n2)Nc2cccc(c2)CN2CCNC(CC1=O)C2 (stereo not drawn) [Compound 128] | 5.81 | 1.02e-07 | 2.63e-05 | 1.82e-06 | – | –
CN(C)C(=O)c1ccc2cc1CN1CCN(CC1)CC(=O)N(C)CCCN(C)c1ccc(cn1)-c1ccnc(n1)N2 [Compound 17] | 39.5 | – | > 3.02e-05 | 1.1e-06 | – | –
O=C1CN2CCN(CC2)Cc2cccc(c2)Nc2nccc(n2)-c2ccc(nc2)NCC(O)CN1 (single isomer, unassigned) [Compound 25] | 6.36 | 7.76e-08 | > 3.02e-05 | 2.88e-06 | – | –
C=CCN1CCNC(=O)CN2CCN(CC2)Cc2cccc(c2)Nc2nccc(n2)-c2ccc(nc2)C1 [Compound 45] | – | 1.66e-07 | 2.19e-07 | 7.94e-09 | – | –
CN1CCCNc2ccc(cn2)-c2ccnc(n2)Nc2cccc(c2)CN2CCC(CC2)CC1=O [Compound 124] | 53.2 | – | > 3.02e-05 | > 3.02e-05 | – | –
O=C1CN2CCN(CC2)Cc2cccc(c2F)Nc2nccc(n2)-c2ccc(nc2)NCCCN1 [Compound 4] | 29.3 | 4.79e-07 | 8.71e-06 | 8.32e-08 | – | –
CN1CCCCN(C)c2ccc(cn2)-c2ccnc(n2)Nc2cccc(c2)CN2CCN(CC2)CC1=O [Compound 20] | 8.85 | 1.62e-07 | > 3.02e-05 | 1.82e-06 | – | –
NC(=O)c1ccc2cc1CN1CCN(CC1)CC(=O)NCCCNc1ccc(cn1)-c1ccnc(n1)N2 [Compound 15] | 1.07 | 5.01e-08 | 2.75e-05 | 6.03e-07 | – | –
CN1CCCN(C)c2ccc(cn2)-c2ccnc(n2)Nc2cccc(c2)CN2CCN(CC2)C(c2ccccc2)C1=O (stereo not drawn) [Compound 64] | 64.6 | – | 2.63e-05 | 7.24e-07 | – | –
COCCN1CCNc2ccc(cn2)-c2ccnc(n2)Nc2cccc(c2)CN2CCN(CC2)CC1=O [Compound 123] | 23.6 | 3.89e-06 | > 3.02e-05 | 8.71e-06 | – | –
CN1CCCN(C)c2ccc(cn2)-c2ccnc(n2)Nc2ccc(C(=O)O)c(c2)CN2CCN(CC2)CC1=O [Compound 11] | 33.3 | – | > 3.02e-05 | 4.57e-07 | – | –
C=CCCN1CCNC(=O)CN2CCN(CC2)Cc2cccc(c2)Nc2nccc(n2)-c2ccc(nc2)C1 [Compound 37] | – | 9.55e-08 | 1.82e-07 | 7.59e-09 | – | –
O=C1CN2CCN(CC2)C(=O)c2cccc(c2)Nc2nccc(n2)-c2ccc(nc2)NCCCN1 [Compound 117] | 11.7 | 2e-07 | > 3.02e-05 | 3.47e-07 | – | –
CN1CCCN(C)c2ccc(cn2)-c2ccnc(n2)Nc2cccc(c2)CN2CCN(C)C(C2)C1=O (stereo not drawn) [Compound 75] | 22.9 | 1.38e-06 | > 3.02e-05 | > 3.02e-05 | – | –
